According to patent US7534915B2, “Non-symmetrical gelling agent” (Applied Nanosystems B.V., priority 2003, dated 2009):

Assay: Gel test (vial inversion)
Type: physicochemical
Method: A weighed amount of solid was dissolved in 0.5 or 1 ml of the solvent in a closed 2.0 ml vial using a heating gun or a heating block and subsequently slowly cooled to room temperature by standing in the air. Gelation was determined by turning the vial upside down and gentle shaking. If no flow of the mass was observed, the mass was defined to be a gel. Alternatively, a weighed amount of solid was dissolved in 1 mL of solvent by the addition of acid or base. The subsequent addition of base or acid then gave gelation. Alternatively, a weighed amount of solid was dissolved in a small amount of solvent. The subsequent addition of a large amount of non-solvent then gave gelation. Alternatively, the solution of gelator/thickener was added to the non-solvent, resulting in gelation. Alternatively, a weighed amount of solid was mixed with 1 mL of solvent by sonication. After stopping the sonication, gelation occurred. Alternatively a weighed amount of solid was mixed with 1 mL of solvent by brief vortexing after which gelation occurred. Alternatively a weighed amount of solid was mixed with 1 mL of solvent after which gelation occurred.

[1] = PEG 400 (printed PEG for compound 20)

For `CCCC[C@H](NC(=O)[C@@H]1C[C@H](C(=O)O)C[C@H](C(=O)N[C@@H](CCCC)C(=O)O)C1)C(=O)O` [Compound 32, CHex(AmNleOH)2(COOH)], the Gel test (H2O, concentration not given) was “gel”.

In the case of `CCCC[C@H](NC(=O)[C@@H]1C[C@H](C(=O)O)C[C@H](C(=O)N[C@@H](CCCC)C(=O)OC)C1)C(=O)OC` [Compound 31, CHex(AmNleOMe)2(COOH)], the Gel test (EtOH) is reported as “gel” and the Gel test [1] is reported as “gel”.

For `COC(=O)[C@H](Cc1ccccc1)NC(=O)[C@H](Cc1ccccc1)NC(=O)[C@@H]1C[C@H](C(=O)O)C[C@H](C(=O)O)C1` [Compound 22, CHex(AmPheAmPheOMe)(COOH)2], the Gel test (toluene) was “gel”.

With `O=C(NCCOCCO)[C@@H]1C[C@H](C(=O)NCCOCCO)C[C@H](C(=O)N[C@@H](Cc2ccccc2)C(=O)NCc2ccccc2)C1` [Compound 8, CHex(AmPhe-AmBn)(AmEtOEtOtH)2] the Gel test (1 mg/mL in H2O) was “clear gel (thixotropic)”, the Gel test (EtOH) was “gel” and the Gel test (H2O/PG mixtures) was “gel”. The Gel test (H2O/t-BuOH (TBA/H2O) mixtures) was “gel”, the Gel test (MeCN) was “gel” and the Gel test [1] was “gel”. The Gelation of emulsion (hydrogel 2 mg/ml + olive oil 200 μL, vortexed five seconds) was “gelated emulsion”, the Gel test (olive oil) was “weak gel” and the Gel test (propylene glycol (PG)) was “gel”. The Gel test (t-BuOH) was “gel”.

In the case of `O=C(NCCOCCO)[C@@H]1C[C@H](C(=O)NCCOCCO)C[C@H](C(=O)N[C@@H](Cc2ccc(O)cc2)C(=O)Nc2ccc3ccccc3c2)C1` [Compound 24, CHex(AmTyrAmβNA)(AmEtOEtOH)2], the Gel test (1 mg/mL in H2O) is reported as “clear gel”, the Gel test (EtOH) is reported as “gel” and the Gel test (MeCN) is reported as “gel”. For the same molecule, the Gel test (olive oil) was “gelly precipitate”.

For `COc1ccc(NC(=O)[C@H](Cc2ccccc2)NC(=O)[C@@H]2C[C@H](C(=O)NCCOCCO)C[C@H](C(=O)NCCOCCO)C2)cc1` [Compound 10, CHex(AmPhe-AmPh-OMe)(AmEtOEtOH)2], the Gel test (3 mg/mL in H2O) was “clear gel”.

For `CSCC[C@H](NC(=O)[C@@H]1C[C@H](C(=O)O)C[C@H](C(=O)O)C1)C(=O)Nc1ccc2ccccc2c1` [Compound 3, CHex(AmMet-AmβNA)(COOH)2], the Gel test (3 mg/mL in H2O) was “slightly crystalline gel”.

With `CSCC[C@H](NC(=O)[C@@H]1C[C@H](C(=O)NCCO)C[C@H](C(=O)NCCO)C1)C(=O)Nc1ccc2ccccc2c1` [Compound 5, CHex(AmMet-AmβNA)(AmEtOH)2] the Gel test (2 mg/mL in H2O) was “clear gel”.

For `O=C(O)[C@@H]1C[C@H](C(=O)O)C[C@H](C(=O)N[C@@H](Cc2ccccc2)C(=O)Nc2ccc3ccccc3c2)C1` [Compound 1, CHex(AmPhe-AmβNA)(COOH)2], the Gel test (3 mg/mL in H2O) was “slightly crystalline gel”.

For `O=C(O)[C@@H]1C[C@H](C(=O)O)C[C@H](C(=O)N[C@@H](Cc2ccccc2)C(=O)NCc2ccccc2)C1` [Compound 7, CHex(AmPhe-AmBn)(COOH)2], the Gel test (3 mg/mL in H2O) was “slightly turbid gel”.

With `O=C(CNC(=O)[C@H](Cc1ccccc1)NC(=O)[C@@H]1C[C@H](C(=O)O)C[C@H](C(=O)O)C1)Nc1ccc2ccccc2c1` [Compound 27, CHex(AmPheAmGlyAmβNA)(COOH)2] the Gel test (H2O, concentration not given) was “gel”.

In the case of `CNC(=O)[C@H](Cc1ccccc1)NC(=O)[C@@H]1C[C@H](C(=O)N[C@@H](Cc2ccccc2)C(=O)NC)C[C@H](C(=O)OCc2ccccc2)C1` [Compound 33, CHex(AmPheAmMe)2(COOBn)], the Gel test (DMSO) is reported as “turbid gel”.

In the case of `O=C(N[C@@H](Cc1ccccc1)C(=O)NC1CCCCC1)[C@H]1C[C@@H](C(=O)OCc2ccccc2)C[C@@H](C(=O)OCc2ccccc2)C1` [Compound 16, CHex(OBn)2(AmPheAmCHex)], the Gel test (EtOH) is reported as “gel”, the Gel test (MeCN) is reported as “gel” and the Gel test [1] is reported as “gel”. The Gel test (olive oil) was “gel”.

With `COC(=O)[C@H](Cc1ccccc1)NC(=O)[C@@H]1C[C@H](C(=O)N[C@@H](Cc2ccccc2)C(=O)OC)C[C@H](C(=O)OCc2ccccc2)C1` [Compound 29, CHex(AmPhe-OMe)2(OBn)] the Gel test (EtOH) was “gel”, the Gel test (MeOH) was “gel” and the Gel test (olive oil) was “gel”. For the same molecule, the Gel test (toluene) was “gel”.

With `COc1ccc(NC(=O)[C@H](Cc2ccccc2)NC(=O)[C@@H]2C[C@H](C(=O)O)C[C@H](C(=O)O)C2)cc1` [Compound 9, CHex(AmPhe-AmPh-OMe)(COOH)2] the Gel test (3 mg/mL in H2O) was “clear gel”.

In the case of `O=C(O)[C@@H]1C[C@H](C(=O)O)C[C@H](C(=O)N[C@@H](Cc2ccccc2)C(=O)N[C@@H](Cc2ccccc2)C(=O)O)C1` [Compound 23, CHex(AmPheAmPheOH)(COOH)2], the “Aqueous gel formation by acidification” value (compound 22 heated in 1N NaOH (aq), cooled to RT, 2N HCl (aq) added) is reported as “gel”.

In the case of `CSCC[C@H](NC(=O)[C@@H]1C[C@H](C(=O)NCCOCCO)C[C@H](C(=O)NCCOCCO)C1)C(=O)Nc1ccc2ccccc2c1` [Compound 4, CHex(AmMet-AmβNA)(AmEtOEtOH)2], the Gel test (1 mg/mL in H2O) is reported as “clear gel” and the Gel test (3 mg/mL in MeOH) is reported as “clear gel”.

For `CSCC[C@H](NC(=O)[C@@H]1C[C@H](C(=O)NCc2ccncc2)C[C@H](C(=O)NCc2ccncc2)C1)C(=O)Nc1ccc2ccccc2c1` [Compound 6, CHex(AmMet-AmβNA)(AmCH2Pyr)2], the Gel test (1 mg/mL in H2O) was “slightly turbid gel”.

With `CCCCCC(C)NC(=O)[C@H](Cc1ccccc1)NC(=O)[C@@H]1C[C@H](C(=O)O)C[C@H](C(=O)O)C1` (stereo partly shown) [Compound 21, CHex(AmPheAm2-Heptyl)(COOH)2] the Gel test (H2O, concentration not given) was “gel” and the Gel test (toluene) was “gel”.

In the case of `CC(C)C[C@H](NC(=O)[C@@H]1C[C@H](C(=O)O)C[C@H](C(=O)N[C@@H](CC(C)C)C(=O)Nc2ccc3ccccc3c2)C1)C(=O)Nc1ccc2ccccc2c1` [Compound 37, CHex(AmLeuAmβNA)2(COOH)], the Gel test (DMSO/H2O mixtures) is reported as “gel”, the Gel test (H2O/MeOH mixtures) is reported as “gel” and the Gel test (H2O/iPrOH mixtures) is reported as “gel”. The Gel test (H2O/t-BuOH (TBA/H2O) mixtures) was “gel”.

With `O=C(NCCOCCO)[C@@H]1C[C@H](C(=O)NCCOCCO)C[C@H](C(=O)N[C@@H](Cc2ccccc2)C(=O)Nc2ccc([N+](=O)[O-])cc2)C1` [Compound 14, CHex(AmPheAmPhNO2)(AmEtOEtOH)2] the Gel test (H2O, concentration not given) was “yellow, weak gel” and the “Stability upon heating in water” value (heating in water, yellow color (p-NA) observed) was “hydrolysis of the PheAmPhNO2 amide takes place”.

With `O=C(NCCOCCO)[C@@H]1C[C@H](C(=O)NCCOCCO)C[C@H](C(=O)N[C@@H](Cc2ccccc2)C(=O)Nc2ccc3ccccc3c2)C1` [Compound 2, CHex(AmPhe-AmβNA)(AmEtOEtOH)2] the Gel test (1 mg/mL in H2O) was “clear gel”.

For `O=C(O)[C@@H]1C[C@H](C(=O)O)C[C@H](C(=O)N[C@@H](Cc2ccccc2)C(=O)NCCc2ccccc2)C1` [Compound 25, CHex(AmPheAmEtPh)(COOH)2], the Gel test (H2O, concentration not given) was “gel” and the Gel test (toluene) was “gel”.

With `O=C(NCCOCCO)[C@@H]1C[C@H](C(=O)NCCOCCO)C[C@H](C(=O)N[C@@H](Cc2ccccc2)C(=O)NC2CCCCC2)C1` [Compound 18, CHex(AmPheAmCHex)(AmEtOEtOH)2] the Gel test (2 mg/mL in H2O) was “clear gel” and the Gel test (20 mg/mL in DMSO) was “turbid gel”.

With `C[C@H](NC(=O)[C@@H]1C[C@H](C(=O)O)C[C@H](C(=O)O)C1)C(=O)Nc1ccc2ccccc2c1` [Compound 13, CHex(AmAlaAmβNA)(COOH)2] the Gel test (H2O, concentration not given) was “gel”.

With `O=C(O)[C@H]1C[C@@H](C(=O)N[C@@H](CO)C(=O)Nc2ccc3ccccc3c2)C[C@@H](C(=O)N[C@@H](CO)C(=O)Nc2ccc3ccccc3c2)C1` [Compound 36, CHex(AmSerAmβNA)2(COOH)] the Gel test (DMSO/CH2Cl2 mixtures) was “gel”, the Gel test (DMSO/EtOH mixtures) was “gel” and the Gel test (DMSO/H2O mixtures) was “gel”. The Gel test (DMSO/MeCN mixtures) was “gel”, the Gel test (DMSO/toluene mixtures) was “gel” and the Gel test (H2O, concentration not given) was “gel”. For the same molecule, the Gel test (H2O/t-BuOH (TBA/H2O) mixtures) was “gel” and the Gel test (MeCN) was “weak gel”.

With `COC(=O)[C@H](Cc1ccccc1)NC(=O)[C@@H]1C[C@H](C(=O)O)C[C@H](C(=O)N[C@@H](Cc2ccccc2)C(=O)OC)C1` [Compound 30, CHex(AmPhe-OMe)2(COOH)] the Gel test (3 mg/mL in H2O) was “clear gel”, the Gel test (EtOH/H2O mixtures) was “gel” and the Gel test (PEG 400/H2O mixtures) was “gel”. The Gel test (olive oil) was “gel” and the Gel test (toluene) was “gel”.

In the case of `O=C(N[C@@H](CO)C(=O)Nc1ccc2ccccc2c1)[C@@H]1C[C@H](C(=O)N[C@@H](CO)C(=O)Nc2ccc3ccccc3c2)C[C@H](C(=O)OCc2ccccc2)C1` [Compound 35, CHex(AmSerAmβNA)2(COOBn)], the Gel test (DMSO/CH2Cl2 mixtures) is reported as “gel”, the Gel test (DMSO/EtOH mixtures) is reported as “gel” and the Gel test (DMSO/MeCN mixtures) is reported as “gel”. For the same molecule, the Gel test (DMSO/MeOH mixtures) was “gel”, the Gel test (DMSO/toluene mixtures) was “gel” and the Gel test (EtOH) was “gel”. The Gel test (MeCN) was “gel”.

For `CCCCCCCCCCNC(=O)[C@H](Cc1ccccc1)NC(=O)[C@@H]1C[C@H](C(=O)O)C[C@H](C(=O)O)C1` [Compound 19, CHex(AmPheAmDecyl)(COOH)2], the Gel test (H2O, concentration not given) was “clear gel” and the Gel test (toluene) was “gel”.

For `CCCCCCCCCCNC(=O)[C@H](Cc1ccccc1)NC(=O)[C@@H]1C[C@H](C(=O)NCCOCCO)C[C@H](C(=O)NCCOCCO)C1` [Compound 20, CHex(AmPheAmDecyl)(AmEtOEtOH)2], the Gel test (EtOH) was “gel”, the Gel test (H2O, concentration not given) was “gel” and the Gel test [1] was “gel”. The Gel test (toluene) was “gel”.

In the case of `O=C(NCCOCCO)[C@@H]1C[C@H](C(=O)NCCOCCO)C[C@H](C(=O)N[C@@H](Cc2ccccc2)C(=O)NCCc2ccccc2)C1` [Compound 26, CHex(AmPheAmEtPh)(AmEtOEtOH)2], the Gel test (H2O, concentration not given) is reported as “gel (thixotropic)”, the Gel test (H2O/PG mixtures) is reported as “gel” and the Gel test (H2O/t-BuOH (TBA/H2O) mixtures) is reported as “gel”. The Gel test (propylene glycol (PG)) was “gel” and the Gel test (t-BuOH) was “gel”.

With `O=C(O)[C@H]1C[C@@H](C(=O)N[C@@H](Cc2ccccc2)C(=O)Nc2ccc3ccccc3c2)C[C@@H](C(=O)N[C@@H](Cc2ccccc2)C(=O)Nc2ccc3ccccc3c2)C1` [Compound 34, CHex(AmPheAmβNA)2(COOH)] the Gel test (H2O, concentration not given) was “gel” and the Gel test (H2O/t-BuOH (TBA/H2O) mixtures) was “gel”.
